The record followed here is patent publication US11999746B2, “Compounds” (GlaxoSmithKline Intellectual Property Development Limited, priority 2014, dated 2024).

Test [1] concerns the target T1, Lp-PLA2 in human plasma (Homo sapiens, UniProt Q13093).
T1 construct: from tissue; host or cells: pooled human plasma
T1 sequence (Q13093 22-441): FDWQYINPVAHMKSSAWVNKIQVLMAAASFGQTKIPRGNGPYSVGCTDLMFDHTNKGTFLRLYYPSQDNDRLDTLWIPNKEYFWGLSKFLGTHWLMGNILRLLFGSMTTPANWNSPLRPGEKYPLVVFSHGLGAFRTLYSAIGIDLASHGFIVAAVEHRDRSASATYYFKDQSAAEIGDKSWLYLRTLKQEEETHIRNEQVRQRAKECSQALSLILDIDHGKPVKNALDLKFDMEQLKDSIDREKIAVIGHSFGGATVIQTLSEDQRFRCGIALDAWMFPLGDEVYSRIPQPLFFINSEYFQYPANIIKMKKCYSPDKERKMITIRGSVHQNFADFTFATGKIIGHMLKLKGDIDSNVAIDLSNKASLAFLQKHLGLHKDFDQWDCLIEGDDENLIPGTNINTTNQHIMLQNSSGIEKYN
Briefly: (3a) Lp-PLA2 human plasma Thio-PAF assay. The format is biochemical. As to conditions: (3a) Thio-PAF assay, pooled human plasma; Examples 1-265 and 413-430 were tested here; read-out: pIC50 in the Lp-PLA2 human plasma assay (converted). An outline of the steps:
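Endogenous Lp-PLA2 activity in frozen pooled human plasma measured as thiol release from 2-thio-PAF, detected by CPM fluorescence (ex 380/em 485). Compound preincubation 30 min; 2-min reaction in HEPES pH 7.4 buffer with NEM, stopped with 5% TFA, read 40 min later at room temperature; values as pIC50.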

For test [2], the target named is T2, recombinant human Lp-PLA2 (Homo sapiens, UniProt Q13093).
T2 sequence (Q13093 22-441): T1 sequence (Q13093 22-441)
The test is described as follows: (1a) PED6 assay, recombinant human Lp-PLA2 (rhLp-PLA2). The format is biochemical. As to conditions: Examples 1-167 and 413-430 were tested here, one experiment or average of multiple experiments, read-out: rhLp-PLA2 (pIC50) (converted). Summed up: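 PED6 (2 μM final after 1:1 addition of 4 μM stock) cleavage by rhLp-PLA2 (4 nM working solution) in 50 mM HEPES pH 7.4, 150 mM NaCl, 1 mM CHAPS; compounds preincubated with enzyme 30 minutes, reaction 20 min at room temperature. Fluorescence at ex 480/em 540; pIC50 from curve fit.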

SMILES strings stand for the structures.

As for `O=c1nc(OCc2cccc(F)c2)cc2n1C[C@H]1COCN21` [Example E148, (S)-6-((3-fluorobenzyl)oxy)-10,10a-dihydro-1H-oxazolo[3′,4′:3,4]imidazo[1,2-c]pyrimidin-8(3H)-one], the IC50 in test [1] is ≤ 10000 nM; in test [2], ≤ 100 nM.

`O=c1nc(OCc2cc(F)c(Oc3cnn(C(F)(F)F)c3)c(F)c2)cc2n1C[C@@H]1COCN21` [Example E154, (R)-6-((3,5-difluoro-4-((1-(trifluoromethyl)-1H-pyrazol-4-yl)oxy)benzyl)oxy)-10,10a-dihydro-1H-oxazolo[3′,4′:3,4]imidazo[1,2-c]pyrimidin-8(3H)-one]: the values for the IC50 in test [1] and in test [2] were ≤ 100 nM and ≤ 1 nM, respectively.

For the compound `O=c1nc(OCc2cc(F)c(OC3(CCF)CC3)c(F)c2)cc2n1C[C@@H]1CCOCN21` [Example E140, (S)-3-((3,5-difluoro-4-(1-(2-fluoroethyl)cyclopropoxy)benzyl)oxy)-8,9,9a,10-tetrahydropyrimido[6′,1′:2,3]imidazo[1,5-c][1,3]oxazin-1(6H)-one], the IC50 in test [1] is ≤ 10000 nM; in test [2], ≤ 100 nM.

With `CC(C)n1cc(Oc2c(F)cc(COc3cc4n(c(=O)n3)CC3CCCN43)cc2F)cn1` (stereo not drawn) [Example E65, 3-((3,5-Difluoro-4-((1-isopropyl-1H-pyrazol-4-yl)oxy)benzyl)oxy)-7,8,8a, 9-tetrahydro pyrrolo[1′,2′:3,4]imidazo[1,2-c]pyrimidin-1(6H)-one], the IC50 in test [1] was ≤ 10000 nM; in test [2], ≤ 100 nM.

As to `O=c1nc(OCc2cc(F)cc(F)c2)cc2n1CC1CCCCN21` (stereo not drawn) [Example E3, 3-((3,5-Difluorobenzyl)oxy)-6,7,8,9,9a,10-hexahydro-1H-pyrido[1′,2′:3,4]imidazo-[1,2-c] pyrimidin-1-one], the IC50 is ≤ 10000 nM in test [1] and ≤ 100 nM in test [2].

Turning to `CN1c2cc(OCc3ccc(F)cc3F)nc(=O)n2CC12CCC2` [Example 416, 7′4(2,4-difluorobenzyhoxy)-1-methyl-1H-spiro[cyclobutane-1,2′-imidazo[1,2-c]pyrimidin]-5′(3′H)-one], the IC50 in test [1] was ≤ 10000 nM; in test [2], ≤ 100 nM.

As to `O=c1nc(OCc2ccc(F)c(F)c2)cc2n1C[C@H]1CCCCN21` [Example E30, (R)-3-((3,4-Difluorobenzyl)oxy)-6,7,8,9,9a,10-hexahydro-1H-pyrido[1′,2′:3,4]imidazo[1,2-c]pyrimidin-1-one], the IC50 in test [1] and in test [2] was ≤ 100 nM throughout.

`O=c1nc(OCc2cc(F)cc(Cl)c2)cc2n1CC1CCCCN21` (stereo not drawn) [Example E29, 3-((3-Chloro-5-fluorobenzyl)oxy)-6,7,8,9,9a,10-hexahydro-1H-pyrido[1′,2′:3,4]imidazo[1,2-c]pyrimidin-1-one]: the values for the IC50 in test [1] and in test [2] were ≤ 10000 nM and ≤ 100 nM, respectively.

Consider `O=c1nc(OCc2ccc(F)cc2F)cc2n1CC1CCCCN21` (stereo not drawn) [Example E8, 3-((2,4-Difluorobenzyl)oxy)-6,7,8,9,9a,10-hexahydro-1H-pyrido[1′,2′:3,4]imidazo[1,2-c] pyrimidin-1-one], for which the results for the IC50 in test [1] and in test [2] were ≤ 10000 nM and ≤ 100 nM, respectively.

In the case of `CCCCN1CC(Oc2c(F)cc(COc3cc4n(c(=O)n3)CC3CCCN43)cc2F)C1` (stereo not drawn) [Example E98, 3-((4-((1-Butylazetidin-3-yl)oxy)-3,5-difluorobenzyl)oxy)-7,8,8a,9-tetrahydropyrrolo[1′,2′:3,4]imidazo[1,2-c]pyrimidin-1(6H)-one], the IC50 was ≤ 10000 nM in test [1] and ≤ 100 nM in test [2].

As to `O=c1nc(OCc2cc(F)c(Oc3ccc(F)c(F)c3)c(F)c2)cc2n1C[C@@H]1CCCN21` [Example E74, (S)-3-((4-(3,4-difluorophenoxy)-3,5-difluorobenzyl)oxy)-7,8,8a,9-tetrahydropyrrolo[1′,2′:3,4]imidazo[1,2-c]pyrimidin-1(6H)-one], the IC50 in test [1] was ≤ 10000 nM; in test [2], ≤ 100 nM.

For the compound `O=c1nc(OCc2cc(F)cc(F)c2)cc2n1C[C@H]1CCCN21` [Example E103, (R)-3-((3,5-difluorobenzyl)oxy)-7,8,8a,9-tetrahydropyrrolo[1,2′:3,4]imidazo[1,2-c] pyrimidin-1(6H)-one], the IC50 in test [1] is ≤ 10000 nM; in test [2] it was ≤ 100 nM.

`CN1c2cc(OCc3cc(F)c(F)c(F)c3)nc(=O)n2CC12CCC2` [Example 423, 1′-methyl-7′-((3,4,5-trifluorobenzyl)oxy)-1′H-spiro[cyclobutane-1,2′-imidazo[1,2-c]pyrimidin]-5′(3′H)-one]: the IC50 in test [1] and in test [2] was ≤ 100 nM in each case.

For `Cn1cc(Oc2ccc(COc3cc4n(c(=O)n3)C[C@H]3CCCN43)cc2F)cn1` [Example E68, (R)-3-((3-fluoro-4-((1-methyl-1H-pyrazol-4-yl)oxy)benzyl)oxy)-7,8,8a, 9-tetrahydro pyrrolo[1′,2′:3,4]imidazo[1,2-c]pyrimidin-1(6H)-one], the figures for the IC50 in test [1] and in test [2] were ≤ 10000 nM and ≤ 100 nM, respectively.

For the compound `O=c1nc(OCc2cc(F)c(Oc3ccnc(C(F)(F)F)c3)c(F)c2)cc2n1CC1CCCCN21` (stereo not drawn) [Example E37, 3-((3,5-difluoro-4-((2-(trifluoromethyl)pyridin-4-yl)oxy)benzyl)oxy)-6,7,8,9,9a,10-hexahydro-1H-pyrido[1′,2′:3,4]imidazo[1,2-c]pyrimidin-1-one], the IC50 in test [1] was ≤ 100 nM; in test [2] it was ≤ 1 nM.

In the case of `CCn1cc(Oc2c(F)cc(COc3cc4n(c(=O)n3)C[C@@H]3COCN43)cc2F)cn1` [Example E158, (R)-6-((4-((1-ethyl-1H-pyrazol-4-yl)oxy)-3,5-difluorobenzyl)oxy)-10,10a-dihydro-1H-oxazolo[3′,4′:3,4]imidazo[1,2-c]pyrimidin-8(3H)-one], the IC50 in test [1] was ≤ 10000 nM; in test [2], ≤ 100 nM.

On to `Cc1ccc(Oc2c(F)cc(COc3cc4n(c(=O)n3)C[C@@H]3COCCN43)cc2F)cn1` [Example E118, (R)-7-((3,5-difluoro-4-((6-methylpyridin-3-yl)oxy)benzyl)oxy)-3,4,11,11atetrahydropyrimido[6′,1′:2,3]imidazo[5,1-c][1,4]oxazin-9(1H)-one], for which the IC50 in test [1] is ≤ 100 nM; in test [2], ≤ 1 nM.

As to `O=c1nc(OCc2cc(F)c(Oc3ccnc(Cl)c3)c(F)c2)cc2n1CC1CCCCN21` (stereo not drawn) [Example E26, 3-((4-((2-Chloropyridin-4-yl)oxy)-3,5-difluorobenzyl)oxy)-6,7,8,9,9a,10-hexahydro-1H-pyrido[1,2′:3,4]imidazo[1,2-c]pyrimidin-1-one], the IC50 in test [1] is ≤ 100 nM; in test [2] it was ≤ 1 nM.

On to `N#Cc1cc(COc2cc3n(c(=O)n2)C[C@@H]2CCCN32)ccc1Oc1cc(F)cc(F)c1` [Example E88, (S)-2-(3,5-difluorophenoxy)-5-(((1-oxo-1,6,7,8,8a,9-hexahydropyrrolo[1′,2′:3,4]imidazo[1,2-c]pyrimidin-3-yl)oxy)methyl)benzonitrile], for which the IC50 is ≤ 10000 nM in test [1] and ≤ 1 nM in test [2].

For the compound `CN1c2cc(OCc3cccc(F)c3F)nc(=O)n2CC12CCCC2` [Example 426, 7′4(2,3-difluorobenzyhoxy)-1-methyl-1H-spiro[cyclopentane-1,2′-imidazo[1,2-c]pyrimidin]-5′(3′H)-one], the IC50 in test [1] and in test [2] was ≤ 100 nM each time.

For the compound `CN1c2cc(OCc3cccc(F)c3)nc(=O)n2CC12CCCC2` [Example 418], the IC50 in test [1] and in test [2] was ≤ 100 nM throughout.

For the compound `O=c1nc(OCc2cc(F)c(OC3(CCF)CC3)c(F)c2)cc2n1C[C@H]1CCCN21` [Example E105, (R)-3-((3,5-difluoro-4-(1-(2-fluoroethyl)cyclopropoxy)benzyl)oxy)-7,8,8a,9-tetrahydro pyrrolo[1′,2′:3,4]imidazo[1,2-c]pyrimidin-1(6H)-one], the values for the IC50 in test [1] and in test [2] were ≤ 10000 nM and ≤ 100 nM, respectively.

Regarding `N#Cc1cc(COc2cc3n(c(=O)n2)CC2CCCCN32)ccc1Oc1ccc(F)c(F)c1` (stereo not drawn) [Example E19, 2-(3,4-Difluorophenoxy)-5-(((1-oxo-6,7,8,9,9a,10-hexahydro-1H-pyrido[1′,2′:3,4]imidazo-[1,2-c]pyrimidin-3-yl)oxy)methyl)benzonitrile], the IC50 in test [1] is ≤ 100 nM; in test [2], ≤ 1 nM.

Consider `Cn1cc(Oc2c(F)cc(COc3cc4n(c(=O)n3)CC3CCCN43)cc2F)cn1` (stereo not drawn) [Example E63, 3-((3,5-Difluoro-4-((1-methyl-1H-pyrazol-4-yl)oxy)benzyl)oxy)-7,8,8a,9-tetrahydro pyrrolo[1′,2′:3, 4] imidazo[1,2-c] pyrimidin-1(6H)-one], for which the IC50 was ≤ 10000 nM in test [1] and ≤ 100 nM in test [2].
